From PubChem BioAssay AID1745844 (Carcinogenic Potency Database (CPDB), 2022)
Calls of active or inactive are those of the source. The rule behind the calls is not given here.

Test system: rodent lifetime carcinogenesis bioassay, tumor incidence TD50
Assay: chronic cancer bioassays in animals – CPDB, compiled studies (AID 1745844)

CC(C)O
carcinogen call (mouse, strain Charles River CD1, females, inhaled, site: kidney, lesion: one or several types, types not named, dosed 54 weeks, study length 54 weeks): negative (inactive)
carcinogen call (mouse, strain Charles River CD1, females, inhaled, site: kidney, lesion: one or several types, types not named, dosed 78 weeks, study length 78 weeks): negative (inactive)
carcinogen call (mouse, strain Charles River CD1, males, inhaled, site: kidney, lesion: one or several types, types not named, dosed 54 weeks, study length 54 weeks): negative (inactive)
carcinogen call (mouse, strain Charles River CD1, males, inhaled, site: kidney, lesion: one or several types, types not named, dosed 78 weeks, study length 78 weeks): negative (inactive)
carcinogen call (rat, strain Fischer 344, females, inhaled, site: kidney, lesion: one or several types, types not named, dosed 72 weeks, study length 73 weeks): negative (inactive)
carcinogen call (rat, strain Fischer 344, females, inhaled, site: kidney, lesion: one or several types, types not named, dosed 104 weeks, study length 104 weeks): negative (inactive)
carcinogen call (rat, strain Fischer 344, males, inhaled, site: kidney, lesion: one or several types, types not named, dosed 72 weeks, study length 73 weeks): negative (inactive)
carcinogen call (rat, strain Fischer 344, males, inhaled, site: kidney, lesion: one or several types, types not named, dosed 102 weeks, study length 104 weeks): negative (inactive)
TD50 (rat, strain Fischer 344, males, inhaled, site: testis, lesion: interstitial-cell adenoma, dosed 72 weeks, study length 73 weeks): 456 mg/kg/day (inactive)
TD50 (rat, strain Fischer 344, males, inhaled, site: testis, lesion: interstitial-cell adenoma, dosed 102 weeks, study length 104 weeks): 46.4 mg/kg/day (inactive)

O=S(=O)([O-])[O-].[Ni+2]
carcinogen call (mouse, strain B6C3F1, females, inhaled, site: any site (literature study), lesion: several types, types named in the paper, dosed 104 weeks, study length 104 weeks): negative (inactive)
TD50 (mouse, strain B6C3F1, females, inhaled, site: lung, lesion: alveolar/bronchiolar adenoma + alveolar/bronchiolar carcinoma, dosed 104 weeks, study length 104 weeks): 3.1 mg/kg/day
carcinogen call (mouse, strain B6C3F1, males, inhaled, site: any site (literature study), lesion: several types, types named in the paper, dosed 104 weeks, study length 105 weeks): negative (inactive)
carcinogen call (rat, strain Fischer 344, females, inhaled, site: any site (literature study), lesion: several types, types named in the paper, dosed 104 weeks, study length 104 weeks): negative (inactive)
carcinogen call (rat, strain Fischer 344, males, inhaled, site: any site (literature study), lesion: several types, types named in the paper, dosed 104 weeks, study length 105 weeks): negative (inactive)
TD50 (rat, strain Fischer 344, males, inhaled, site: liver, lesion: hepatocellular adenoma + hepatoblastoma + hepatocellular carcinoma, dosed 104 weeks, study length 105 weeks): 2.08 mg/kg/day

C=C1C[C@]23C[C@@]1(O)CC[C@H]2[C@@]12C=C[C@H](O)[C@@](C)(C(=O)O1)[C@H]2[C@@H]3C(=O)O
carcinogen call (mouse, strain B6AKF1, females, oral dosing, site: any site (literature study), lesion: several types, types named in the paper, dosed 76 weeks, study length 76 weeks): negative (inactive)
carcinogen call (mouse, strain B6AKF1, females, oral dosing, site: liver, lesion: hepatoma, dosed 76 weeks, study length 76 weeks): negative (inactive)
carcinogen call (mouse, strain B6AKF1, females, oral dosing, site: lung, lesion: adenoma, dosed 76 weeks, study length 76 weeks): negative (inactive)
TD50 (mouse, strain B6AKF1, males, oral dosing, site: any site (literature study), lesion: several types, types named in the paper, dosed 76 weeks, study length 76 weeks): 151 mg/kg/day (inactive)
TD50 (mouse, strain B6AKF1, males, oral dosing, site: liver, lesion: hepatoma, dosed 76 weeks, study length 76 weeks): 316 mg/kg/day (inactive)
TD50 (mouse, strain B6AKF1, males, oral dosing, site: lung, lesion: several types, types named in the paper, dosed 76 weeks, study length 76 weeks): 460 mg/kg/day (inactive)
TD50 (mouse, strain B6C3F1, females, oral dosing, site: any site (literature study), lesion: several types, types named in the paper, dosed 76 weeks, study length 76 weeks): 1150 mg/kg/day (inactive)
carcinogen call (mouse, strain B6C3F1, females, oral dosing, site: liver, lesion: hepatoma, dosed 76 weeks, study length 76 weeks): negative (inactive)
carcinogen call (mouse, strain B6C3F1, females, oral dosing, site: lung, lesion: several types, types named in the paper, dosed 76 weeks, study length 76 weeks): negative (inactive)
TD50 (mouse, strain B6C3F1, males, oral dosing, site: any site (literature study), lesion: several types, types named in the paper, dosed 76 weeks, study length 76 weeks): 214 mg/kg/day (inactive)
TD50 (mouse, strain B6C3F1, males, oral dosing, site: liver, lesion: hepatoma, dosed 76 weeks, study length 76 weeks): 460 mg/kg/day (inactive)
TD50 (mouse, strain B6C3F1, males, oral dosing, site: lung, lesion: adenoma, dosed 76 weeks, study length 76 weeks): 952 mg/kg/day (inactive)

CC1=C(/C=C/C(C)=C/C=C/C(C)=C/C(=O)O)C(C)(C)CCC1
carcinogen call (rat, strain Sprague-Dawley, females, i.p., site: any site (literature study), lesion: malignant tumor, dosed 104 weeks, study length 104 weeks): negative (inactive)
TD50 (rat, strain Sprague-Dawley, males, i.p., site: any site (literature study), lesion: malignant tumor, dosed 104 weeks, study length 104 weeks): 188 mg/kg/day (inactive)

CC1=C(CC(=O)O)c2cc(F)ccc2/C1=C\c1ccc(S(C)(=O)=O)cc1
carcinogen call (rat, strain Fischer 344, males, in feed, site: colon, lesion: one or several types, types not named, dosed 53 weeks, study length 53 weeks): negative (inactive)

CCOc1ccc2c(c1)C(C)=CC(C)(C)N2
carcinogen call (rat, strain F344/DuCrj, males, in feed, site: esophagus, lesion: one or several types, types not named, dosed 52 weeks, study length 52 weeks): negative (inactive)
carcinogen call (rat, strain F344/DuCrj, males, in feed, site: forestomach, lesion: one or several types, types not named, dosed 52 weeks, study length 52 weeks): negative (inactive)
carcinogen call (rat, strain F344/DuCrj, males, in feed, site: liver, lesion: one or several types, types not named, dosed 52 weeks, study length 52 weeks): negative (inactive)
carcinogen call (rat, strain Fischer 344, females, in feed, site: kidney, lesion: one or several types, types not named, dosed 58 weeks, study length 58 weeks): negative (inactive)
carcinogen call (rat, strain Fischer 344, females, in feed, site: kidney, lesion: one or several types, types not named, dosed 78 weeks, study length 78 weeks): negative (inactive)
carcinogen call (rat, strain Fischer 344, males, in feed, site: kidney, lesion: one or several types, types not named, dosed 58 weeks, study length 58 weeks): negative (inactive)
carcinogen call (rat, strain Fischer 344, males, in feed, site: kidney, lesion: one or several types, types not named, dosed 78 weeks, study length 78 weeks): negative (inactive)

CN(C)Nc1nc(-c2ccc([N+](=O)[O-])o2)cs1
TD50 (rat, strain Sprague-Dawley, females, in feed, site: all sites, lesion: lymphoblastic lymphoma, dosed 46 weeks, study length 66 weeks): 16.3 mg/kg/day
TD50 (rat, strain Sprague-Dawley, females, in feed, site: mammary gland, lesion: adenocarcinoma, dosed 46 weeks, study length 66 weeks): 0.391 mg/kg/day
carcinogen call (rat, strain Sprague-Dawley, females, in feed, site: mammary gland, lesion: several types, types named in the paper, dosed 46 weeks, study length 66 weeks): positive
